Measured values as given in the NIST ThermoML archive (doi:10.1021/je034053i).
Numbers after ± are expanded uncertainties.

Experiments:
[1] = xn = mol fraction of the nth substance listed; conditions: 298.15 K; for surface tension liquid-gas: Drop volume; for mass density: 101.3 kPa, Liquid
[2] = refractive index (Na D-line) (dimensionless); xn = mol fraction of the nth substance listed; conditions: 298.15 K, 101.3 kPa, Liquid, Standard Abbe refractometry
[3] = 298.15 K; for surface tension liquid-gas: Drop volume; for mass density: 101.33 kPa, Liquid
[4] = refractive index (Na D-line) (dimensionless); conditions: 298.15 K; 101.33 kPa; Liquid; Standard Abbe refractometry

CCCCCCCC [octane] + CCCO
Conditions	refractive index, [2]	surface tension liquid-gas, [1] [mN/m]
x1 = 0.0237	1.3835 ± 0.0004	–
x1 = 0.123	1.3852 ± 0.0004	22.38 ± 0.19
x1 = 0.1859	1.3862 ± 0.0004	22.05 ± 0.19
x1 = 0.2349	1.3869 ± 0.0004	21.81 ± 0.18
x1 = 0.29	1.3877 ± 0.0004	21.66 ± 0.18
x1 = 0.3454	1.3884 ± 0.0004	21.53 ± 0.18
x1 = 0.3547	1.3885 ± 0.0004	21.51 ± 0.18
x1 = 0.4493	1.3896 ± 0.0004	21.36 ± 0.18
x1 = 0.5154	1.3903 ± 0.0004	21.3 ± 0.18
x1 = 0.5218	1.3904 ± 0.0004	21.29 ± 0.18
x1 = 0.6224	1.3914 ± 0.0004	21.22 ± 0.18
x1 = 0.6308	1.3915 ± 0.0004	21.21 ± 0.18
x1 = 0.6938	1.3921 ± 0.0004	21.21 ± 0.18
x1 = 0.7592	1.3927 ± 0.0004	21.17 ± 0.18
x1 = 0.7884	1.393 ± 0.0004	21.17 ± 0.18
x1 = 0.8449	1.3935 ± 0.0004	21.16 ± 0.18
x1 = 0.8918	1.394 ± 0.0004	21.16 ± 0.18
x1 = 0.9245	1.3943 ± 0.0004	21.16 ± 0.18

CCCCCCCC [octane] + CCO
Conditions	mass density [kg/m3]	refractive index	surface tension liquid-gas [mN/m]
[1], x1 = 0.0131	781.56 ± 2.4	–	–
[1], x1 = 0.0523	771.81 ± 2.5	–	–
[1], x1 = 0.0686	–	–	21.37 ± 0.18
[1], x1 = 0.0788	766.05 ± 2.5	–	–
[1], x1 = 0.1132	–	–	21.2 ± 0.18
[1], x1 = 0.1433	758.82 ± 2.6	–	–
[1], x1 = 0.1721	–	–	21.06 ± 0.18
[1], x1 = 0.1881	754.27 ± 2.6	–	–
[1], x1 = 0.2228	747.52 ± 2.7	–	–
[1], x1 = 0.2616	742.94 ± 2.7	–	–
[1], x1 = 0.2867	–	–	20.88 ± 0.18
[1], x1 = 0.3011	738.29 ± 2.8	–	–
[1], x1 = 0.3571	–	–	20.82 ± 0.18
[1], x1 = 0.3725	734.06 ± 2.8	–	–
[1], x1 = 0.3985	727.44 ± 2.9	–	–
[1], x1 = 0.4536	725.27 ± 2.9	–	–
[1], x1 = 0.4544	–	–	20.77 ± 0.18
[1], x1 = 0.4898	–	–	20.77 ± 0.18
[1], x1 = 0.5175	721.13 ± 2.9	–	–
[1], x1 = 0.5401	–	–	20.78 ± 0.18
[1], x1 = 0.5832	716.94 ± 2.9	–	–
[1], x1 = 0.5865	–	–	20.79 ± 0.18
[1], x1 = 0.6299	–	–	20.8 ± 0.18
[1], x1 = 0.6457	–	–	20.81 ± 0.18
[1], x1 = 0.669	–	–	20.84 ± 0.18
[1], x1 = 0.6709	713.14 ± 3	–	–
[1], x1 = 0.7226	708.8 ± 3	–	–
[1], x1 = 0.765	–	–	20.89 ± 0.18
[1], x1 = 0.8041	–	–	20.92 ± 0.18
[1], x1 = 0.8191	–	–	20.94 ± 0.18
[1], x1 = 0.8201	706.53 ± 3	–	–
[1], x1 = 0.8707	702.91 ± 3	–	–
[1], x1 = 0.9095	–	–	21.01 ± 0.18
[1], x1 = 0.9212	–	–	21.05 ± 0.18
[2], x1 = 0.0686	–	1.3641 ± 0.0004	–
[2], x1 = 0.1132	–	1.367 ± 0.0004	–
[2], x1 = 0.1721	–	1.3705 ± 0.0004	–
[2], x1 = 0.1834	–	1.3711 ± 0.0004	–
[2], x1 = 0.2867	–	1.3762 ± 0.0004	–
[2], x1 = 0.35	–	1.3789 ± 0.0004	–
[2], x1 = 0.3571	–	1.3792 ± 0.0004	–
[2], x1 = 0.4544	–	1.3827 ± 0.0004	–
[2], x1 = 0.4898	–	1.3839 ± 0.0004	–
[2], x1 = 0.5401	–	1.3853 ± 0.0004	–
[2], x1 = 0.5865	–	1.3866 ± 0.0004	–
[2], x1 = 0.6299	–	1.3877 ± 0.0004	–
[2], x1 = 0.6457	–	1.388 ± 0.0004	–
[2], x1 = 0.669	–	1.3885 ± 0.0004	–
[2], x1 = 0.765	–	1.3906 ± 0.0004	–
[2], x1 = 0.8191	–	1.3917 ± 0.0004	–
[2], x1 = 0.9095	–	1.3934 ± 0.0004	–
[2], x1 = 0.9212	–	1.3939 ± 0.0004	–

CCCCCO [pentan-1-ol]
Conditions	mass density [kg/m3]	refractive index	surface tension liquid-gas [mN/m]
[3]	810.83 ± 1.8	–	24.97 ± 0.19
[4]	–	1.408 ± 0.0004	–

CCCCCO [pentan-1-ol] + CCCCCCCC
Conditions	refractive index, [2]	surface tension liquid-gas, [1] [mN/m]
x2 = 0.0189	1.4075 ± 0.0005	–
x2 = 0.115	1.4058 ± 0.0004	23.88 ± 0.22
x2 = 0.1459	1.4052 ± 0.0004	23.6 ± 0.21
x2 = 0.1629	1.4049 ± 0.0004	23.5 ± 0.21
x2 = 0.2727	1.403 ± 0.0004	22.8 ± 0.21
x2 = 0.3271	1.4022 ± 0.0004	22.54 ± 0.2
x2 = 0.4586	1.4003 ± 0.0004	22.06 ± 0.2
x2 = 0.4927	1.3999 ± 0.0004	21.96 ± 0.2
x2 = 0.5188	1.3996 ± 0.0004	21.91 ± 0.19
x2 = 0.5951	1.3986 ± 0.0004	21.75 ± 0.19
x2 = 0.655	1.3979 ± 0.0004	21.65 ± 0.19
x2 = 0.6713	1.3977 ± 0.0004	21.63 ± 0.19
x2 = 0.7676	1.3968 ± 0.0004	21.5 ± 0.19
x2 = 0.7932	1.3966 ± 0.0004	21.46 ± 0.19
x2 = 0.834	1.3963 ± 0.0004	21.41 ± 0.19
x2 = 0.8869	1.3958 ± 0.0004	21.35 ± 0.18
x2 = 0.9457	1.3955 ± 0.0004	21.27 ± 0.18

CCCO [propan-1-ol]
Conditions	mass density [kg/m3]	refractive index	surface tension liquid-gas [mN/m]
[3]	799.62 ± 1.8	–	23.39 ± 0.15
[4]	–	1.383 ± 0.0003	–
